Experimental data: patent US20220273678A1 (priority 2020, published 2022)

How the values were obtained:
SARS-CoV-2 Delta variant [1] = assay type: cell-based; conditions: 1000 nM Mito-MES; 1000 nM dTPP; CoQ10 1000-2000 nM
SARS-CoV-2 Beta variant [2] = assay type: cell-based; conditions: for antiviral activity against Beta variant, viral titer assay: hACE2 HEK293T, 1000 nM dTPP, CoQ10 1000-2000 nM
SARS-CoV-2 Delta variant [3] = test: microbe, parasite or virus in culture; assay type: cell-based; conditions: Severe acute respiratory syndrome coronavirus 2, Calu-3
SARS-CoV-2 Beta variant [4] = system: SARS-CoV-2 Beta variant; parameters: species or system mice; conditions: mouse, in vivo
SARS-CoV-2 Beta = test: microbe, parasite or virus in culture; assay type: cell-based; conditions: Severe acute respiratory syndrome coronavirus 2, Calu-3
SARS-CoV-2 Delta variant [5] = system: SARS-CoV-2 Delta variant; parameters: species or system mice; conditions: mouse, in vivo

Row | SMILES | antiviral activity against Delta variant in ALI lung cultures (SARS-CoV-2 Delta variant [1]) | time-of-addition study, intracellular N protein (SARS-CoV-2 Beta variant [2]) | antiviral activity against Beta variant, viral titer assay (SARS-CoV-2 Beta variant [2]) | IC50 (SARS-CoV-2 Delta variant [3]) [nM] | IL-lb, IL-6, TNFa in the lung (SARS-CoV-2 Beta variant [4]) | cleaved caspase 3 in lung, immunofluorescence (SARS-CoV-2 Beta variant [4]) | frequency of NK cells in lungs (SARS-CoV-2 Beta variant [4]) | histopathology: lung inflammation and tissue damage (SARS-CoV-2 Beta variant [4]) | IC50 (SARS-CoV-2 Beta) [nM] | SARS-CoV-2 N protein in lungs, ELISA (SARS-CoV-2 Delta variant [5]) | reduction of viral titer relative to vehicle (SARS-CoV-2 Delta variant [5]; po, 20 mg/kg) [log units]
1 | CCCCCCCCCC[P+](c1ccccc1)(c1ccccc1)c1ccccc1.[Br-] [dTPP] | potent antiviral activity | reduced SARS-CoV-2 entry and had less impact on SARS-CoV-2 cytoplasmic replication | potent antiviral activity | – | – | – | – | – | – | – | –
2 | COC1=C(OC)C(=O)C(CCCCCCCCCC[P+](c2ccccc2)(c2ccccc2)c2ccccc2)=C(C)C1=O.CS(=O)(=O)[O-] [Mito-MES, 10-(4,5-dimethoxy-2-methyl-3,6-dioxo-1,4-cyclohexadienyl) decyl triphenylphosphonium methanesulfonate] | inhibited SARS-CoV-2 Delta variants in ALI lung cultures | also even when added 4 hours after infection | – | 41 | reduction in IL-lb, IL-6, TNFa | inhibited SARS-CoV-2-associated increase in cleaved caspase 3 | reduced frequency of NK cells | reduction of lung inflammation and tissue damage | 34 | further confirmed by ELISA | ~3
3 | COC1=C(OC)C(=O)C(C/C=C(\C)CC/C=C(\C)CC/C=C(\C)CC/C=C(\C)CC/C=C(\C)CC/C=C(\C)CC/C=C(\C)CC/C=C(\C)CC/C=C(\C)CCC=C(C)C)=C(C)C1=O [CoQ10, Coenzyme Q10] | only higher concentrations (1000-2000 nM) | – | only higher concentrations (1000-2000 nM) | – | – | – | – | – | – | – | –
